From patent US4643987A, “Modified glycopeptides” (Eli Lilly and Company, priority 1985, dated 1987)
Converted amounts (≈) assume the structure as drawn.

How the values were obtained:
[1] = test system: Staphylococcus aureus V41; assay: agar-dilution MIC; assay type: cell-based
[2] = test system: Staphylococcus epidermidis EP11; assay: agar-dilution MIC; assay type: cell-based
[3] = test system: Haemophilus influenzae 76; assay: agar-dilution MIC; assay type: cell-based
[4] = test system: Streptococcus pneumoniae Park 1; assay type: cell-based; conditions: agar dilution
[5] = test system: Haemophilus influenzae C.L.; assay: agar-dilution MIC; assay type: cell-based
[6] = test system: Staphylococcus aureus S13E; assay type: cell-based; conditions: agar dilution
[7] = test system: Streptococcus pyrogenes C203; assay: agar-dilution MIC; assay type: cell-based
[8] = test system: Staphylococcus epidermidis 222; assay: agar-dilution MIC; assay type: cell-based
[9] = test system: Streptococcus sp. group D 2041; assay: agar-dilution MIC; assay type: cell-based
[10] = test system: Staphylococcus aureus X400; assay: agar-dilution MIC; assay type: cell-based
[11] = test system: Streptococcus faecium ATCC 9790; assay: agar-dilution MIC; assay type: cell-based
[12] = test system: Staphylococcus aureus NRRL B313; assay: agar-dilution MIC; assay type: cell-based
[13] = test system: Streptococcus pneumoniae; assay: experimental bacterial infection in mice, ED50; assay type: in vivo; conditions: two doses, subcutaneously
Procedure: (§1) Some of the compounds of this invention have also shown in vivo antimicrobial activity against experimental bacterial infections. When two doses of test compound were administered to mice in experimental infections, the activity observed was measured as an ED50 value [effective dose in mg/kg to protect 50% of the test animals: see Warren Wick, et al., J. Bacteriol. 81, 233-235 (1961)].

[14] = test system: Streptococcus pyogenes; assay: experimental bacterial infection in mice, ED50; assay type: in vivo; conditions: two doses, subcutaneously
Procedure: as §1

[15] = test system: Staphylococcus aureus; assay: experimental bacterial infection in mice, ED50; assay type: in vivo; conditions: two doses, subcutaneously
Procedure: as §1

CCCCCCCCOc1ccc(C(=O)N[C@@]2(C)C[C@H](O[C@H]3[C@H](Oc4c5cc6cc4Oc4ccc(cc4Cl)[C@@H](O)[C@@H](NC(=O)[C@@H](CC(C)C)NC)C(=O)N[C@@H](CC(N)=O)C(=O)N[C@H]6C(=O)N[C@H]4C(=O)N[C@H](C(=O)N[C@H](C(=O)O)c6cc(O)cc(O)c6-c6cc4ccc6O)[C@H](O)c4ccc(c(Cl)c4)O5)O[C@H](CO)[C@@H](O)[C@@H]3O)O[C@@H](C)[C@H]2O)cc1 [Compound 1, N^van --[4-(n-octyloxy)benzoyl]vancomycin]
MIC [1]: 1 µg/mL (≈ 0.595 µM) | MIC [2]: 16 µg/mL (≈ 9.51 µM) | MIC [3]: -- (-- = not active at 128 mcg/ml) | MIC [4]: 2 µg/mL (≈ 1.19 µM) | MIC [5]: -- (-- = not active at 128 mcg/ml) | MIC [6]: 1 µg/mL (≈ 0.595 µM) | MIC [7]: 2 µg/mL (≈ 1.19 µM) | MIC [8]: 4 µg/mL (≈ 2.38 µM) | MIC [9]: 1 µg/mL (≈ 0.595 µM) | MIC [10]: 2 µg/mL (≈ 1.19 µM) | MIC [11]: 0.5 µg/mL (≈ 0.297 µM) | MIC [12]: 1 µg/mL (≈ 0.595 µM)

CCCCCCCCc1ccc(C(=O)N[C@@]2(C)C[C@H](O[C@H]3[C@H](Oc4c5cc6cc4Oc4ccc(cc4Cl)[C@@H](O)[C@@H](NC(=O)[C@@H](CC(C)C)NC)C(=O)N[C@@H](CC(N)=O)C(=O)N[C@H]6C(=O)N[C@H]4C(=O)N[C@H](C(=O)N[C@H](C(=O)O)c6cc(O)cc(O)c6-c6cc4ccc6O)[C@H](O)c4ccc(c(Cl)c4)O5)O[C@H](CO)[C@@H](O)[C@@H]3O)O[C@@H](C)[C@H]2O)cc1 [Compound 2, N^van --[4-(n-octyl)benzoyl]vancomycin]
MIC [1]: 0.5 µg/mL (≈ 0.3 µM) | MIC [2]: 8 µg/mL (≈ 4.8 µM) | MIC [3]: -- (-- = not active at 128 mcg/ml) | MIC [4]: 0.5 µg/mL (≈ 0.3 µM) | MIC [5]: -- (-- = not active at 128 mcg/ml) | MIC [6]: 0.5 µg/mL (≈ 0.3 µM) | ED50 [13]: 0.72 mg/kg/2 | ED50 [14]: 1.0 mg/kg/2 | ED50 [15]: 3.78 mg/kg/2 | MIC [7]: 0.25 µg/mL (≈ 0.15 µM) | MIC [8]: 1 µg/mL (≈ 0.6 µM) | MIC [9]: 0.125 µg/mL (≈ 0.075 µM) | MIC [10]: 0.5 µg/mL (≈ 0.3 µM) | MIC [11]: 0.125 µg/mL (≈ 0.075 µM) | MIC [12]: 0.5 µg/mL (≈ 0.3 µM)

CCCCCCCCc1ccc(C(=O)N(C)C(CC(C)C)C(=O)NC2C(=O)NC(CC(N)=O)C(=O)NC3C(=O)NC4C(=O)NC(C(=O)NC(C(=O)O)c5cc(O)cc(O)c5-c5cc4ccc5O)C(O)c4ccc(c(Cl)c4)Oc4cc3cc(c4OC3OC(CO)C(O)C(O)C3OC3CC(C)(N)C(O)C(C)O3)Oc3ccc(cc3Cl)C2O)cc1 (stereo not drawn) [Compound 3, N^leu --[4-(n-octyl)benzoyl]vancomycin]
MIC [1]: 2 µg/mL (≈ 1.2 µM) | MIC [2]: 16 µg/mL (≈ 9.61 µM) | MIC [3]: 64 µg/mL (≈ 38.4 µM) | MIC [4]: 1 µg/mL (≈ 0.6 µM) | MIC [5]: 128 µg/mL (≈ 76.8 µM) | MIC [6]: 2 µg/mL (≈ 1.2 µM) | MIC [7]: 1 µg/mL (≈ 0.6 µM) | MIC [8]: 2 µg/mL (≈ 1.2 µM) | MIC [9]: 1 µg/mL (≈ 0.6 µM) | MIC [10]: 2 µg/mL (≈ 1.2 µM) | MIC [11]: 1 µg/mL (≈ 0.6 µM) | MIC [12]: 2 µg/mL (≈ 1.2 µM)

CN[C@H](CC(C)C)C(=O)N[C@H]1C(=O)N[C@@H](CC(N)=O)C(=O)N[C@H]2C(=O)N[C@H]3C(=O)N[C@H](C(=O)N[C@H](C(=O)O)c4cc(O)cc(O)c4-c4cc3ccc4O)[C@H](O)c3ccc(c(Cl)c3)Oc3cc2cc(c3O[C@@H]2O[C@H](CO)[C@@H](O)[C@H](O)[C@H]2O[C@H]2C[C@](C)(NC(=O)c3ccc(OC)cc3)[C@H](O)[C@H](C)O2)Oc2ccc(cc2Cl)[C@H]1O [Compound 4, N^van --(4-methoxybenzoyl)vancomycin]
MIC [1]: 2 µg/mL (≈ 1.26 µM) | MIC [2]: 8 µg/mL (≈ 5.05 µM) | MIC [3]: 128 µg/mL (≈ 80.8 µM) | MIC [4]: 0.5 µg/mL (≈ 0.316 µM) | MIC [5]: 128 µg/mL (≈ 80.8 µM) | MIC [6]: 2 µg/mL (≈ 1.26 µM) | MIC [7]: 1 µg/mL (≈ 0.632 µM) | MIC [8]: 2 µg/mL (≈ 1.26 µM) | MIC [9]: 8 µg/mL (≈ 5.05 µM) | MIC [10]: 2 µg/mL (≈ 1.26 µM) | MIC [11]: 2 µg/mL (≈ 1.26 µM) | MIC [12]: 2 µg/mL (≈ 1.26 µM)

CN[C@H](CC(C)C)C(=O)N[C@H]1C(=O)N[C@@H](CC(N)=O)C(=O)N[C@H]2C(=O)N[C@H]3C(=O)N[C@H](C(=O)N[C@H](C(=O)O)c4cc(O)cc(O)c4-c4cc3ccc4O)[C@H](O)c3ccc(c(Cl)c3)Oc3cc2cc(c3O[C@@H]2O[C@H](CO)[C@@H](O)[C@H](O)[C@H]2O[C@H]2C[C@](C)(NC(=O)CC(C)Oc3ccccc3)[C@H](O)[C@H](C)O2)Oc2ccc(cc2Cl)[C@H]1O (stereo partly drawn) [Compound 6, N^van --(1-oxo-3-phenoxy-n-butyl)vancomycin]
MIC [1]: 2 µg/mL (≈ 1.24 µM) | MIC [2]: 8 µg/mL (≈ 4.96 µM) | MIC [3]: -- (-- = not active at 128 mcg/ml) | MIC [4]: 1 µg/mL (≈ 0.621 µM) | MIC [5]: -- (-- = not active at 128 mcg/ml) | MIC [6]: 2 µg/mL (≈ 1.24 µM) | ED50 [13]: 1.8 mg/kg/2 | ED50 [14]: 3.2 mg/kg/2 | ED50 [15]: 3.7 mg/kg/2 | MIC [7]: 1 µg/mL (≈ 0.621 µM) | MIC [8]: 2 µg/mL (≈ 1.24 µM) | MIC [9]: 4 µg/mL (≈ 2.48 µM) | MIC [10]: 2 µg/mL (≈ 1.24 µM) | MIC [11]: 2 µg/mL (≈ 1.24 µM) | MIC [12]: 1 µg/mL (≈ 0.621 µM)

CN[C@H](CC(C)C)C(=O)N[C@H]1C(=O)N[C@@H](CC(N)=O)C(=O)N[C@H]2C(=O)N[C@H]3C(=O)N[C@H](C(=O)N[C@H](C(=O)O)c4cc(O)cc(O)c4-c4cc3ccc4O)[C@H](O)c3ccc(c(Cl)c3)Oc3cc2cc(c3O[C@@H]2O[C@H](CO)[C@@H](O)[C@H](O)[C@H]2O[C@H]2C[C@](C)(NC(=O)CC(C)c3cccs3)[C@H](O)[C@H](C)O2)Oc2ccc(cc2Cl)[C@H]1O (stereo partly drawn) [Compound 7, N^van --[1-oxo-3-(2-thienyl)-n-butyl]vancomycin]
MIC [1]: 1 µg/mL (≈ 0.624 µM) | MIC [2]: 8 µg/mL (≈ 5 µM) | MIC [3]: 128 µg/mL (≈ 79.9 µM) | MIC [4]: 0.5 µg/mL (≈ 0.312 µM) | MIC [5]: -- (-- = not active at 128 mcg/ml) | MIC [6]: 2 µg/mL (≈ 1.25 µM) | ED50 [13]: 2.3 mg/kg/2 | ED50 [14]: 3.38 mg/kg/2 | ED50 [15]: 3.05 mg/kg/2 | MIC [7]: 1 µg/mL (≈ 0.624 µM) | MIC [8]: 2 µg/mL (≈ 1.25 µM) | MIC [9]: 4 µg/mL (≈ 2.5 µM) | MIC [10]: 1 µg/mL (≈ 0.624 µM) | MIC [11]: 2 µg/mL (≈ 1.25 µM) | MIC [12]: 1 µg/mL (≈ 0.624 µM)

CC(C)C[C@H](C(=O)N[C@H]1C(=O)N[C@@H](CC(N)=O)C(=O)N[C@H]2C(=O)N[C@H]3C(=O)N[C@H](C(=O)N[C@H](C(=O)O)c4cc(O)cc(O)c4-c4cc3ccc4O)[C@H](O)c3ccc(c(Cl)c3)Oc3cc2cc(c3O[C@@H]2O[C@H](CO)[C@@H](O)[C@H](O)[C@H]2O[C@H]2C[C@](C)(NC(=O)CSc3ccccc3)[C@H](O)[C@H](C)O2)Oc2ccc(cc2Cl)[C@H]1O)N(C)C(=O)CSc1ccccc1 [Compound 12, N^van,N^leu-di-[1-oxo-2-(phenylthio)ethyl]vancomycin]
MIC [1]: 16 µg/mL (≈ 9.14 µM) | MIC [2]: 128 µg/mL (≈ 73.2 µM) | MIC [3]: -- (-- = not active at 128 mcg/ml) | MIC [4]: 8 µg/mL (≈ 4.57 µM) | MIC [5]: -- (-- = not active at 128 mcg/ml) | MIC [6]: 32 µg/mL (≈ 18.3 µM) | MIC [7]: 8 µg/mL (≈ 4.57 µM) | MIC [8]: 64 µg/mL (≈ 36.6 µM) | MIC [9]: 64 µg/mL (≈ 36.6 µM) | MIC [10]: 32 µg/mL (≈ 18.3 µM) | MIC [11]: 32 µg/mL (≈ 18.3 µM) | MIC [12]: 16 µg/mL (≈ 9.14 µM)

CN[C@H](CC(C)C)C(=O)N[C@H]1C(=O)N[C@@H](CC(N)=O)C(=O)N[C@H]2C(=O)N[C@H]3C(=O)N[C@H](C(=O)N[C@H](C(=O)O)c4cc(O)cc(O)c4-c4cc3ccc4O)[C@H](O)c3ccc(c(Cl)c3)Oc3cc2cc(c3O[C@@H]2O[C@H](CO)[C@@H](O)[C@H](O)[C@H]2O[C@H]2C[C@](C)(N)[C@H](O)[C@H](C)O2)Oc2ccc(cc2Cl)[C@H]1O [vancomycin, Vancomycin, reference compound]
ED50 [13]: 0.90-0.93 mg/kg/2 | ED50 [14]: 0.99-1.1 mg/kg/2 | ED50 [15]: 1.8-3.7 mg/kg/2

N^leu --(4-methoxybenzoyl)vancomycin [Compound 5]
MIC [1]: 2 µg/mL | MIC [2]: 16 µg/mL | MIC [3]: -- (-- = not active at 128 mcg/ml) | MIC [4]: 2 µg/mL | MIC [5]: -- (-- = not active at 128 mcg/ml) | MIC [6]: 4 µg/mL | MIC [7]: 2 µg/mL | MIC [8]: 4 µg/mL | MIC [9]: 8 µg/mL | MIC [10]: 4 µg/mL | MIC [11]: 4 µg/mL | MIC [12]: 2 µg/mL

N^leu -[1-oxo-2-(phenylthio)ethyl]vancomycin [Compound 11]
MIC [1]: 4 µg/mL | MIC [2]: 16 µg/mL | MIC [3]: -- (-- = not active at 128 mcg/ml) | MIC [4]: 2 µg/mL | MIC [5]: -- (-- = not active at 128 mcg/ml) | MIC [6]: 4 µg/mL | MIC [7]: 4 µg/mL | MIC [8]: 8 µg/mL | MIC [9]: 16 µg/mL | MIC [10]: 8 µg/mL | MIC [11]: 8 µg/mL | MIC [12]: 4 µg/mL

N^van -[1-oxo-2-(phenylthio)ethyl]vancomycin [Compound 10]
MIC [1]: 1 µg/mL | MIC [2]: 4 µg/mL | MIC [3]: 32 µg/mL | MIC [4]: 0.5 µg/mL | MIC [5]: 128 µg/mL | MIC [6]: 1 µg/mL | ED50 [13]: 1.9 mg/kg/2 | ED50 [14]: 4.45 mg/kg/2 | ED50 [15]: 2.3 mg/kg/2 | MIC [7]: 0.5 µg/mL | MIC [8]: 2 µg/mL | MIC [9]: 4 µg/mL | MIC [10]: 1 µg/mL | MIC [11]: 1 µg/mL | MIC [12]: 1 µg/mL
